Data taken from PubChem BioAssay AID248 (DTP/NCI, 2004).
Where “and” joins values, the source holds several entries; their conditions need not be identical. Equal entries are not always repeated. Toxic doses and inconclusive results are not listed. No stated cut-off is given here; in the data, active means T/C of 150% or more; inactive means T/C below 125%.

System: L1210 leukemia ip in BDF1 mice, survival T/C
Assay: NCI In Vivo Anticancer Drug Screen. Data for tumor model L1210 Leukemia (intraperitoneal) in B6D2F1 (BDF1) mice
Conditions: endpoint: mean survival time, higher = longer survival
How it was run: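 Tumor cells were implanted, animals were treated, and survival was followed. The result divides the treated measurement by the vehicle-control measurement.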

[1] = dose: 100.0 mg/kg/injection, schedule: Q04DX003 (ip), vehicle: saline
[2] = dose: 200.0 mg/kg/injection, schedule: Q04DX003 (ip), vehicle: saline
[3] = dose: 25.0 mg/kg/injection, schedule: Q04DX003 (ip), vehicle: saline with Tween-80
[4] = dose: 50.0 mg/kg/injection, schedule: Q04DX003 (ip), vehicle: saline with Tween-80
[5] = dose: 100.0 mg/kg/injection, schedule: Q04DX003 (ip), vehicle: saline with Tween-80
[6] = dose: 100.0 mg/kg/injection, schedule: Q04DX003 (ip), vehicle: Klucel (hydroxypropylcellulose) (HPC)
[7] = dose: 200.0 mg/kg/injection, schedule: Q04DX003 (ip), vehicle: Klucel (hydroxypropylcellulose) (HPC)
[8] = dose: 400.0 mg/kg/injection, schedule: Q04DX003 (ip), vehicle: Klucel (hydroxypropylcellulose) (HPC)
[9] = dose: 100.0 mg/kg/injection, schedule: Q01DX009 (ip), vehicle: saline
[10] = dose: 200.0 mg/kg/injection, schedule: Q01DX009 (ip), vehicle: saline
[11] = dose: 400.0 mg/kg/injection, schedule: Q01DX009 (ip), vehicle: saline
[12] = dose: 400.0 mg/kg/injection, schedule: Q04DX003 (ip), vehicle: saline
[13] = dose: 25.0 mg/kg/injection, schedule: Q01DX009 (ip), vehicle: saline
[14] = dose: 50.0 mg/kg/injection, schedule: Q01DX009 (ip), vehicle: saline
[15] = dose: 100.0 mg/kg/injection, schedule: Q04DX002 (ip), vehicle: Klucel (hydroxypropylcellulose) (HPC)
[16] = dose: 200.0 mg/kg/injection, schedule: Q04DX002 (ip), vehicle: Klucel (hydroxypropylcellulose) (HPC)
[17] = dose: 100.0 mg/kg/injection, schedule: Q01DX001 (ip), vehicle: saline
[18] = dose: 200.0 mg/kg/injection, schedule: Q01DX001 (ip), vehicle: saline
[19] = dose: 400.0 mg/kg/injection, schedule: Q01DX001 (ip), vehicle: saline
[20] = dose: 200.0 mg/kg/injection, schedule: Q04DX003 (ip), vehicle: saline with Tween-80
[21] = dose: 100.0 mg/kg/injection, schedule: Q01DX009 (ip), vehicle: Klucel (hydroxypropylcellulose) (HPC)
[22] = dose: 100.0 mg/kg/injection, schedule: Q01DX001 (ip), vehicle: Klucel (hydroxypropylcellulose) (HPC)
[23] = dose: 200.0 mg/kg/injection, schedule: Q01DX001 (ip), vehicle: Klucel (hydroxypropylcellulose) (HPC)
[24] = dose: 400.0 mg/kg/injection, schedule: Q01DX001 (ip), vehicle: Klucel (hydroxypropylcellulose) (HPC)

Measured: T/C

C/C(=C\Cl)C(=O)O
inactive: [1] 99 % of control | [2] 101 % of control

NC(=O)C1C(=O)c2cccc3c2C1CCCC3 (configuration not stated)
inactive: dose: 100.0 mg/kg/injection, schedule: Q01DX001 (ip), vehicle: carboxymethylcellulose (CMC) 90 % of control | dose: 200.0 mg/kg/injection, schedule: Q01DX001 (ip), vehicle: carboxymethylcellulose (CMC) 95 % of control | dose: 400.0 mg/kg/injection, schedule: Q01DX001 (ip), vehicle: carboxymethylcellulose (CMC) 92 % of control

CC1C(Br)C(=O)NC(=O)N1Cc1ccccc1 (configuration not stated)
inactive: dose: 100.0 mg/kg/injection, schedule: Q01DX Z (ip), vehicle: methylcellulose (MC) 92 % of control | dose: 200.0 mg/kg/injection, schedule: Q01DX Z (ip), vehicle: methylcellulose (MC) 94 % of control

CC(C)(Br)C(=O)c1ccc([N+](=O)[O-])o1
inactive: dose: 12.5 mg/kg/injection, schedule: Q01DX009 (ip), vehicle: saline with Tween-80 97 % of control | dose: 25.0 mg/kg/injection, schedule: Q01DX009 (ip), vehicle: saline with Tween-80 104 % of control | [3] 104 % of control | dose: 50.0 mg/kg/injection, schedule: Q01DX009 (ip), vehicle: saline with Tween-80 95 % of control | [4] 96 % of control | [5] 99 % of control and 89 % of control

OCCCNc1nc2cc(Br)ccc2c2ccc(Br)cc12
inactive: [6] 90 % of control | [7] 105 % of control | [8] 97 % of control

Cc1ccc(C)c(NC(=O)Oc2ccc(-c3ccccc3)cc2)c1
inactive: [9] 96 % of control | [1] 109 % of control | [10] 95 % of control | [2] 110 % of control | [11] 95 % of control | [12] 101 % of control

OCCNc1nn2ccnc2c2ccccc12
inactive: dose: 100.0 mg/kg/injection, schedule: Q04DX002 (ip), vehicle: saline with Tween-80 92 % of control | dose: 200.0 mg/kg/injection, schedule: Q04DX002 (ip), vehicle: saline with Tween-80 92 % of control | dose: 400.0 mg/kg/injection, schedule: Q04DX002 (ip), vehicle: saline with Tween-80 92 % of control

O=[N+]([O-])c1ccc(CSC2=NCCN2)cc1
inactive: [13] 96 % of control | [14] 104 % of control | [9] 98 % of control

O=C(O)C(O)C(O)C(O)C(O)CO (configuration not stated)
inactive: [1] 106 % of control | [2] 96 % of control | [12] 96 % of control

COC1CCC(CCNC(N)=O)CC1OC (configuration not stated)
inactive: [15] 100 % of control | [16] 117 % of control | dose: 400.0 mg/kg/injection, schedule: Q04DX002 (ip), vehicle: Klucel (hydroxypropylcellulose) (HPC) 90 % of control

Cc1cc(NS(=O)(=O)c2ccc(N=Nc3c(N)[nH]c(=O)[nH]c3=O)cc2)nc(C)n1
inactive: [17] 115 % of control | [18] 96 % of control | [19] 93 % of control

COc1cc2c(cc1OC)C1Cc3ccc(OC)c(OC)c3CN1CC2 (configuration not stated)
inactive: [4] 86 % of control | [15] 87 % of control | [5] 116 % of control | [16] 103 % of control | [20] 94 % of control

COc1cc([N+](=O)[O-])ccc1NC(=O)C(Br)C(Br)C(=O)O (configuration not stated)
inactive: dose: 100.0 mg/kg/injection, schedule: Q01DX009 (ip), vehicle: other 94 % of control

O=C(O)CCC1COc2ccccc2O1 (configuration not stated)
inactive: dose: 50.0 mg/kg/injection, schedule: Q01DX001 (ip), vehicle: saline 100 % of control | [17] 108 % of control | [18] 114 % of control | [19] 100 % of control

C=CCc1cccc(O)c1O
inactive: dose: 12.5 mg/kg/injection, schedule: Q04DX002 (ip), vehicle: saline with Tween-80 108 % of control | dose: 25.0 mg/kg/injection, schedule: Q04DX002 (ip), vehicle: saline with Tween-80 96 % of control | dose: 50.0 mg/kg/injection, schedule: Q04DX002 (ip), vehicle: saline with Tween-80 108 % of control

C[N+]1(CCC(c2ccccc2)c2ccccc2)CCCCC1
inactive: dose: 12.5 mg/kg/injection, schedule: Q01DX009 (ip), vehicle: saline 97 % of control | [13] 96 % of control | [14] 96 % of control

COc1c(NC(=O)c2ccccc2Cl)cccc1[N+](=O)[O-]
inactive: dose: 25.0 mg/kg/injection, schedule: Q01DX009 (ip), vehicle: Klucel (hydroxypropylcellulose) (HPC) 100 % of control | dose: 50.0 mg/kg/injection, schedule: Q01DX009 (ip), vehicle: Klucel (hydroxypropylcellulose) (HPC) 88 % of control | [21] 91 % of control and 92 % of control

O/N=C1\CCc2ccccc2C(O)C1c1ccccc1 (configuration not stated)
inactive: [5] 97 % of control | [20] 102 % of control | dose: 400.0 mg/kg/injection, schedule: Q04DX003 (ip), vehicle: saline with Tween-80 88 % of control

COc1cc(Cl)ccc1NC(=O)OCc1ccco1
inactive: [9] 111 % of control | [10] 111 % of control | [11] 100 % of control

CC1(C)C2CCC(CCO)C1C2 (configuration not stated)
inactive: dose: 12.5 mg/kg/injection, schedule: Q04DX003 (ip), vehicle: saline with Tween-80 92 % of control | [13] 96 % of control | [3] 88 % of control | [14] 92 % of control | [4] 95 % of control | [9] 88 % of control | [5] 92 % of control

Nc1ccc(-c2ccc(N)c(Br)c2)cc1Br
inactive: [15] 99 % of control | [16] 93 % of control

O=S1(=O)CCNc2ccccc2O1
inactive: dose: 50.0 mg/kg/injection, schedule: Q01DX001 (ip), vehicle: Klucel (hydroxypropylcellulose) (HPC) 101 % of control | [22] 93 % of control | [23] 97 % of control | [24] 95 % of control

Cc1c(N)c(C)c(-c2c(O)c(Br)c(C)c(O)c2Br)c(C)c1Br
inactive: [22] 93 % of control | [6] 102 % of control | [23] 98 % of control | [7] 96 % of control | [24] 87 % of control | [8] 94 % of control

CC(=O)c1cccc(NC(=O)OC2CCCC(C)C2)c1 (configuration not stated)
inactive: [21] 93 % of control | dose: 200.0 mg/kg/injection, schedule: Q01DX009 (ip), vehicle: Klucel (hydroxypropylcellulose) (HPC) 101 % of control | dose: 400.0 mg/kg/injection, schedule: Q01DX009 (ip), vehicle: Klucel (hydroxypropylcellulose) (HPC) 97 % of control

O=C1CC2CC1C(C(=O)O)C2C(=O)O (configuration not stated)
inactive: [17] 98 % of control | [9] 96 % of control | [18] 96 % of control | [10] 96 % of control | [19] 96 % of control and 98 % of control | [11] 98 % of control

NC(=O)C(=Cc1ccc([N+](=O)[O-])s1)C(N)=O
inactive: [15] 107 % of control | [16] 112 % of control
